Results from PubChem BioAssay (NCI).
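Protocol summary: plate cells (96-well), add compound at 5 concentrations, incubate 48 h, interpolate endpoints linearly. At the GI50, growth is halved. At the TGI there is no net growth.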

Columns and labels:
Assay in all cases: inhibition of tumour cell growth, NCI panel, 48 h
BT-549 breast = tested on: BT-549 breast
COLO 205 colon = tested on: COLO 205 colon
MCF7 breast = tested on: MCF7 breast
MDA-N = tested on: MDA-N
NCI-H226 lung = tested on: NCI-H226 lung
NCI-H522 lung = tested on: NCI-H522 lung
NCI/ADR-RES ovarian = tested on: NCI/ADR-RES ovarian
OVCAR-4 ovarian = tested on: OVCAR-4 ovarian
PC-3 prostate = tested on: PC-3 prostate
SK-MEL-5 melanoma = tested on: SK-MEL-5 melanoma
T-47D breast = tested on: T-47D breast
TK-10 renal = tested on: TK-10 renal
DLD-1 colon = tested on: DLD-1 colon
DMS 273 small cell lung = tested on: DMS 273 small cell lung
KM20L2 colon = tested on: KM20L2 colon
LXFL 529 NSCLC = tested on: LXFL 529 NSCLC
XF 498 CNS = tested on: XF 498 CNS

Row | Structure (SMILES) | TGI (BT-549 breast) [µM] | TGI (COLO 205 colon) [µM] | TGI (MCF7 breast) [µM] | TGI (MDA-N) [µM] | TGI (NCI-H226 lung) [µM] | TGI (NCI-H522 lung) [µM] | TGI (NCI/ADR-RES ovarian) [µM] | TGI (OVCAR-4 ovarian) [µM] | TGI (PC-3 prostate) [µM] | TGI (SK-MEL-5 melanoma) [µM] | TGI (T-47D breast) [µM] | TGI (TK-10 renal) [µM] | TGI (DLD-1 colon) [µM] | TGI (DMS 273 small cell lung) [µM] | TGI (KM20L2 colon) [µM] | TGI (LXFL 529 NSCLC) [µM] | TGI (XF 498 CNS) [µM] | GI50 (NCI-H522 lung) [µM] | GI50 (SK-MEL-5 melanoma) [µM] | GI50 (TK-10 renal) [µM]
1 | Cc1c(Cl)c(S(N)(=O)=O)cc(S(N)(=O)=O)c1NC(=O)c1ccc(Cl)cc1 | > 100 | > 100 | > 100 | > 100 | > 100 | > 100 | > 100 | > 100 | > 100 | > 100 | > 100 | > 100 |  |  |  |  |  |  |  | 
2 | CC1(C)[C@@H]2C[C@H]1C(Cc1ccccc1C[C@H]1c3cc(-c4ccccn4)ncc3[C@H]3C[C@@H]1C3(C)C)c1cc(-c3ccccn3)ncc12 (some centres not stated) | > 31.6 | > 100 | > 100 | > 100 |  | > 22 | > 36.7 | > 100 |  | 28.1 | 3.6 | > 78.7 |  |  |  |  |  |  |  | 
3 | C/C=C1/CN2CC[C@@H]3c4ccccc4N4[C@H](C(=O)OC)[C@H]1C[C@H]2[C@]34/C=C/C1=COC[C@@H]2[C@H]1C[C@H]1c3c(c4ccccc4n3C)C[C@@H]2N1C | 8.05 | 6.62 | 8.67 | 5.41 | 9.16 |  | 6.69 | 6.88 | 6.09 | 7.48 | 8.68 | 7.5 |  |  |  |  |  |  |  | 
4 | Nc1nc(SCCC/C=C/B(O)O)nc2c1ncn2C1OC(CO)C(O)C1O (configuration not stated) |  | > 243 |  |  | > 243 | > 243 |  | > 243 |  | > 243 |  | > 243 | > 243 | > 243 | > 243 | > 243 | > 243 |  |  | 
5 | COc1cc2c(cc1OC)C(C1(O)CCCCC1)NCC2 (configuration not stated) |  | > 100 |  |  | > 100 |  |  |  |  | > 100 |  | > 100 | > 100 | > 100 | > 100 | > 100 | > 100 |  |  | 
6 | O=[N+]([O-])/C=C/c1cccc(F)c1 | 4.91 | 8.02 | 3 | 14 | 6.05 | 26.9 | 35.2 | 16.8 | 11.9 | 18.6 | 72.5 | 14.3 |  |  |  |  |  |  |  | 
7 | Nc1nc(Cl)cc(NCCCCO)n1 |  | > 100 |  |  | > 100 |  |  | > 100 |  | > 100 |  | > 100 | > 100 | > 100 | > 100 | > 100 |  |  |  | 
8 | CC(=O)O[C@H]1CC[C@]2(C)[C@H]3C(=O)C=C4[C@@H]5C[C@](C)(C(=O)N6CCCNCC6)CC[C@]5(C)CC[C@@]4(C)[C@]3(C)CC[C@H]2C1(C)C |  |  |  |  |  | 3.42 |  |  |  | 4.42 |  | 3.45 |  |  |  |  |  | 1.68 | 2.1 | 1.77
9 | C#CCCCCC#CC1CCCC1C1=CC(=O)c2ccccc21 (configuration not stated) |  | 28.6 |  |  | 29.8 | 22 |  | 23.9 |  | 20.2 |  | 34.5 | 24.3 | 11.9 | 22 |  | 20.8 |  |  | 
10 | O=C(N/N=C/c1cc(Br)cc(Br)c1[O-])c1ccccc1O.O=C(N/N=C/c1cc(Br)cc(Br)c1[O-])c1ccccc1O.[Cl-].[Fe+3] |  |  |  |  | 4.97 | 4.56 |  | 8.24 |  | 12.3 |  | 20 |  |  | 13.9 |  |  |  |  | 
11 | CN[C@@H]1[C@H](O)[C@H](NC)[C@H]2O[C@@]3(O)C(=O)C[C@@H](C)O[C@H]3O[C@@H]2[C@H]1O | > 100 | > 100 | > 100 | > 100 | > 100 | > 100 | > 100 | > 100 | > 100 | > 100 | > 100 |  |  |  |  |  |  |  |  | 
